Experimental data from PMC12040169 (PLOS Biology, 2025).

assay: in vitro; details: human, hela cells, % viability

In order of rising viability at 28.5 h, 10 µM:
1. FC(F)(F)c1ccnc(OCCc2c[nH]c3ccccc23)n1 [CBK116625]  80.2%
2. CC(=O)Nc1ccc(S(=O)(=O)Nc2cc(C)c(-n3nc4ccccc4n3)cc2O)cc1 [CBK268382]  81.2%
3. CCN1CCC2(C/C=C/CCOc3ccccc3C(=O)NCCCNC2=O)CC1 [CBK292060]  83.3%
4. O=C(O)CCc1ccc(-c2ccc(F)cc2)n1Cc1ccco1 [CBK265953]  83.9%
5. O=C(O)COCC(=O)N1CCN(C(c2ccccc2)c2ccccc2)CC1 [CBK232579]  84.3%
6. COc1cc(OC)nc(Oc2ccccc2C(=O)O)n1 [CBK092218]  84.6%
7. CC(=O)NCC1CC(N2CCSCC2)=NO1 (stereo not shown) [CBK010367]  85%
8. FC(F)(F)c1ccc2[nH]c(Cn3cncn3)nc2c1 [CBK007335]  85.3%
9. O=C(c1cc(C2CC2)on1)N1CCn2cc(C(F)(F)F)nc2C1 [CBK282425]  85.4%
10. CN1CCCc2ccc(S(=O)(=O)Nc3nc4ncccn4n3)cc21 [CBK305226]  85.7%
11. O=c1[nH]c(/C=C/c2cc(Br)ccc2OCc2cccc3ccccc23)c([N+](=O)[O-])c(=O)[nH]1 [CBK268052]  86.3%
12. CC(C)C(CCC(=O)Nc1ccccc1[N+](=O)[O-])C(=O)O (stereo not shown) [CBK268356]  86.3%
13. COc1nc(NCc2ccco2)nc(OC)n1 [CBK027479]  86.4%
14. O=C(CN(c1ccccc1)S(=O)(=O)c1ccc(F)cc1)Nc1ccc(Cl)c(Cl)c1 [CBK268740]  86.6%
15. Cc1cc(C)nc(SCC(=O)Nc2cc(C(=O)O)cc([N+](=O)[O-])c2)n1 [CBK268937]  86.8%
16. CN1CCc2nc(SCC(=O)NC(C)(C)C)c(C#N)cc2C1 [CBK267445]  87.4%
17. CCOc1cc(S(=O)(=O)NCCCN2CCOCC2)ccc1Br [CBK270111]  87.4%
18. Cc1nc2nc(N)nn2c(C)c1CCC(=O)NCc1cccc(Cl)c1 [CBK304993]  87.5%
19. CC(C)NC(=O)C1CCN(c2nc3ccccc3n2C)CC1 [CBK283986]  87.5%
20. CCn1c(=O)n(CC(=O)NCc2ccc(F)cc2)c2cccnc21 [CBK283901]  87.8%
21. CCCn1c(SC(C)C(=O)Nc2ccc(S(=O)(=O)NC(C)C)cc2)n[nH]c1=O (stereo not shown) [CBK295169]  87.9%
22. Cc1nn(C)c2nc(NCc3ccc(C(=O)N4CCCC4)cc3)sc12 [CBK307190]  88.6%
23. Cc1cccc(C(=O)Nc2ccccc2C(=O)N2CCN(C)CC2)c1 [CBK268565]  89%
24. CC(c1ccco1)N(C)Cc1c[nH]nc1-c1ccc(O)cc1 (stereo not shown) [CBK283303]  89%
25. Cc1nc2c(-c3ccccc3)cnn2c(N2CCCC2)c1C [CBK287799]  89%
26. Cc1ccc(S(=O)(=O)NCc2ccc(-c3nn(C)cc3-c3ccncc3C)cc2)cc1 [CBK285632]  89.2%
27. N=c1n(CCN2CCCCC2)c2ccccc2n1CC(O)COc1ccc(Cl)cc1 (stereo not shown) [CBK262512C]  89.7%
28. Cc1ccc2nc(COC(=O)c3cc(-c4ccccc4)nn3-c3ccccc3)cc(=O)n2c1 [CBK296959]  89.8%
29. C/C(=N\NC(=N)N)C(F)(F)F [CBK023019G]  90.1%
30. O=C(Nc1ccc(S(=O)(=O)NCCc2ccccc2)cc1)c1ccncc1 [CBK268172]  90.3%
31. Cc1cn2cccc(C(=O)N3CCCCC3CCN3CCOCC3)c2n1 (stereo not shown) [CBK306518]  90.3%
32. c1ccc2c(COc3nccnc3N3CCNCC3)ccnc2c1 [CBK014866]  90.3%
33. Cc1noc(NS(=O)(=O)c2ccc(NC(=O)/C=C/c3ccc(Cl)cc3Cl)cc2)c1C [CBK263115]  90.4%
34. c1cc2c3c(ccc(CSCCc4ccncc4)c3c1)CC2 [CBK261074G]  90.4%
35. O=S(=O)(NCCc1cccc(C(F)(F)F)c1)c1cccs1 [CBK044068]  91.1%
36. O=C(COc1ccc(S(=O)(=O)N2CCCC2)cc1Cl)NCc1ccccn1 [CBK268412]  91.3%
37. O=C1OCCN1S(=O)(=O)c1ccc(CN2CCN(Cc3ccc(S(=O)(=O)N4CCOC4=O)cc3)CC2)cc1 [CBK024729]  91.4%
38. Cc1cccc(-c2ncc(NC(=O)CC3OC(=O)c4ccccc43)nc2-c2ccc(N)cc2)c1 (stereo not shown) [CBK036749]  91.5%
39. Cc1ccccc1CN(C)C(C)C(=O)Nc1ccc(S(N)(=O)=O)cc1 (stereo not shown) [CBK304589]  91.7%
40. O=c1ccn([C@@H]2O[C@H](CO)[C@H](O)C2O)c(=S)[nH]1 (stereo partly shown) [CBK201210]  91.8%
41. CC(C)N1CCC(C(=O)NC(=O)NCCOc2cccc3ccccc23)CC1 [CBK034807]  91.9%
42. O=C(c1cccs1)N1CCC[C@H]1[C@H](O)c1nccs1 [CBK284285]  92.1%
43. O=C(COc1ccc(S(=O)(=O)N2CCOCC2)cc1)N1CCc2ccccc2C1 [CBK268350]  92.1%
44. COc1cc(/C=C2/SC(=O)NC2=O)cc(I)c1O [CBK100075]  92.1%
45. O=C(O)CCCNS(=O)(=O)c1ccc([N+](=O)[O-])cc1 [CBK261317]  93.1%
46. COc1ccc(C(=O)N2CC[C@H]3NC(=O)N(c4ccccc4)C(=O)[C@H]32)cc1 [CBK289281]  93.1%
47. CN(C)CCCn1c(NCc2ccc3c(c2)OCO3)nc2ccccc21 [CBK278273C]  94.4%
48. CN(C)CCOC1OC(CO)C(O)C(O)C1O (stereo not shown) [CBK012476C]  94.4%
49. CS(=O)(=O)N(CC(=O)NCc1ccccn1)Cc1ccc(Cl)cc1 [CBK267982]  94.6%
50. COc1cccc(Nc2cc(-c3ccc(N4CCOCC4)cc3)ncn2)c1OC [CBK037687]  94.7%
51. CCCC/C=C/c1cnc(N)c(N[C@H](C)c2ccccc2)n1 [CBK064148]  95.1%
52. CC(C)(C)OC(=O)N1CCC(N(CCCO)Cc2ccccn2)CC1 [CBK304246]  95.1%
53. O=[N+]([O-])c1cnc(NS(=O)(=O)c2ccc(-c3ccon3)s2)s1 [CBK067543]  95.2%
54. CCOC(=O)CCCNC(=O)N1CCN(c2ccccc2OC)CC1 [CBK155618]  95.9%
55. O=C(O)CC(Cc1ccccc1)C(=O)Nc1ccc(F)cc1 (stereo not shown) [CBK286841]  96.1%
56. CCCc1[nH]nc(O)c1-c1ccc(OC)cc1 [CBK075135]  96.1%
57. CN1CCN(c2ccc(NC(=S)NC(=O)c3cc(Br)ccc3Cl)cc2)CC1 [CBK266254C]  96.2%
58. O=C(Cc1ccccc1Cl)NCc1nnc(-c2cccs2)o1 [CBK284643]  96.4%
59. O=C1CCC(N2CCN(c3ncnc4ccccc34)CC2)CCN1 (stereo not shown) [CBK304393]  96.8%
60. Cc1cc(Cl)cc(C)c1NS(=O)(=O)c1ccc(N2CCCNCC2)c2ccccc12 [CBK004433C]  97.2%
61. CCN(CC)CCOC(=O)NS(=O)(=O)c1ccc(Cl)cc1 [CBK288510]  97.6%
62. O=C(CCC1CCCC1)n1ccn(CCc2cccs2)c1=O [CBK106611]  97.6%
63. COC(=O)c1sccc1NC(=O)Cn1nnc(-c2ccc(C)cc2)n1 [CBK267183]  98.4%
64. O=C([C@H]1O[C@H](CCN2CCN(c3ccccc3)CC2)CC[C@@H]1O)N1CCOCC1 [CBK288724]  98.5%
65. Nc1nc(COn2c(-c3ccccc3)nc3ccccc3c2=O)nc(-c2ccccc2O)n1 [CBK266689]  98.6%
66. Cc1[nH]c(=O)c(C(=O)N(C)C(C)c2ccc(Cl)cc2)cc1-c1ccc(O)cc1 (stereo not shown) [CBK291225]  98.8%
67. COCCN(Cc1ccc(OC)cc1)c1c(C)nc2ccc(C(=O)Nc3ccc(NC(C)=O)cc3)cn12 [CBK146111]  99.3%
68. Cc1onc(-c2ccccc2)c1C(=O)NCc1ccccc1 [CBK200116]  99.4%
69. O=C(Oc1ccc(Cl)cc1)c1cc(S(=O)(=O)N2CCOCC2)ccc1Cl [CBK261670]  99.6%
70. CCCS(=O)(=O)c1ccc2[nH]c(NC(=O)c3cnc(-c4ccccc4)c(-c4ccncc4)c3)nc2c1 [CBK037426]  100%
71. Cc1cc(NC(=O)CN(C)C(=O)c2ccc(-n3cc(Br)cn3)cc2)no1 [CBK305575]  100%
72. O=C(CCSc1ccccc1)Nc1ccc(Br)cc1F [CBK266825]  101%
73. Cc1c(C(=O)Nc2ccncc2)nnn1-c1cccc(C(F)(F)F)c1 [CBK107390]  102%
74. O=C(NCc1csc(-c2ccccc2)n1)C(F)(F)F [CBK092340]  102%
75. O=C(O)CCCC(=O)Nc1ccc([N+](=O)[O-])cc1O [CBK267384]  102%
76. O=C(COc1ccccc1)N1CCCC1c1cccc(Cc2ccc(F)cc2)n1 (stereo not shown) [CBK286230]  102%
77. Cc1noc(-c2ccccc2)c1CN1CCCN(S(=O)(=O)c2ccc(C(F)(F)F)cc2Cl)CC1 [CBK063104]  103%
78. CCCCCC1=NN(C(=O)c2ccccc2Br)C(O)(C(F)(F)F)C1 (stereo not shown) [CBK027223]  104%
79. COc1ccccc1CNC(=O)c1cnc2sc(C)cn2c1=O [CBK287708]  104%
80. COc1cc(C=c2sc(=CC(=O)C(C)(C)C)[nH]c2=O)ccc1OCC(=O)O [CBK296948]  104%
81. COc1cc(C(=O)N2CCN(S(=O)(=O)c3ccccc3[N+](=O)[O-])CC2)cc(OC)c1OC [CBK264182]  105%
82. CCN(CC)CCN1C(=O)c2oc3cc(C)c(C)cc3c(=O)c2C1c1cc(Br)c(O)c(OC)c1 (stereo not shown) [CBK266846]  105%
83. O=C(CNC(=O)c1ccc(OC(F)F)cc1)NCCCn1cccn1 [CBK297789]  106%
84. Cc1cccc(-c2csc3c(=O)[nH]c(N4CCC(C(=O)NCc5ccncc5)CC4)nc23)c1 [CBK215625]  106%
85. O=C(CCc1ccc(F)cc1)N1CCC(CC(=O)N2CCN(c3ccccc3)CC2)CC1 [CBK286245]  108%
86. c1ccc2c(c1)/C(=N/OCCCN1CCCCC1)CC21CCCCC1 [CBK013321]  108%
87. OC(CSc1ccccc1)CN1CCN(c2nc(-c3ccccc3)ns2)CC1 (stereo not shown) [CBK074677C]  110%
88. Cc1ccc(C(C)C)c(OCC(O)CNC(C)C)c1 (stereo not shown) [CBK026604C]  111%
